Our source for the refractive index, speed of sound and mass density values is the NIST ThermoML archive (doi:10.1016/j.jct.2016.08.001).

A short description of series [1]: refractive index (Na D-line) (dimensionless). The settings on record: 100 kPa, Liquid, Standard Abbe refractometry.
The conditions of series [2]: 100 kPa, Liquid; for speed of sound: Frequency=3 MHz, Sing-around technique in a fixed-path interferometer; for mass density: Vibrating tube method.

± gives the expanded uncertainty stated by the source.

Turning to `Nc1ccccc1` [aniline], the refractive index (commonly the speed of light in vacuum divided by its phase velocity in the sample) worked out at 1.5826 ± 0.0016 in series [1] (298.15 K); 1.5793 ± 0.0016 in series [1] (303.15 K); 1.576 ± 0.0016 in series [1] (308.15 K); 1.5727 ± 0.0016 in series [1] (313.15 K); 1.5694 ± 0.0016 in series [1] (318.15 K); 1.5661 ± 0.0016 in series [1] (323.15 K). The speed of sound – broadly, the propagation velocity of pressure waves in the medium – is recorded as 1636.8 ± 1.5 m/s in series [2] (298.15 K); 1617.5 ± 1.5 m/s in series [2] (303.15 K); 1598.3 ± 1.5 m/s in series [2] (308.15 K); 1579.1 ± 1.5 m/s in series [2] (313.15 K); 1560 ± 1.5 m/s in series [2] (318.15 K); 1540.9 ± 1.5 m/s in series [2] (323.15 K). Besides, the mass density (commonly mass per unit of volume) in series [2] (298.15 K) came out at 1017.1 ± 1 kg/m3; in series [2] (303.15 K), 1012.7 ± 1 kg/m3; in series [2] (308.15 K) it was 1008.4 ± 1 kg/m3; in series [2] (313.15 K), 1004.1 ± 1 kg/m3; in series [2] (318.15 K) it was 999.7 ± 1 kg/m3; in series [2] (323.15 K) it was 995.4 ± 1 kg/m3.

As to `O=Cc1ccccc1` [benzaldehyde], the refractive index is listed as 1.541 ± 0.0016 in series [1] (298.15 K); 1.5383 ± 0.0016 in series [1] (303.15 K); 1.5357 ± 0.0016 in series [1] (308.15 K); 1.5332 ± 0.0016 in series [1] (313.15 K); 1.5307 ± 0.0016 in series [1] (318.15 K); 1.5282 ± 0.0016 in series [1] (323.15 K). Besides, the speed of sound in series [2] (298.15 K) stood at 1457.3 ± 1.6 m/s; in series [2] (303.15 K) it was 1438.9 ± 1.6 m/s; in series [2] (308.15 K) it was 1420.6 ± 1.6 m/s; in series [2] (313.15 K), 1402.4 ± 1.6 m/s; in series [2] (318.15 K), 1384.4 ± 1.6 m/s; in series [2] (323.15 K), 1366.4 ± 1.6 m/s. The mass density in series [2] (298.15 K) stood at 1041 ± 1 kg/m3; in series [2] (303.15 K), 1036.5 ± 1 kg/m3; in series [2] (308.15 K), 1032 ± 1 kg/m3; in series [2] (313.15 K) it was 1027.5 ± 1 kg/m3; in series [2] (318.15 K), 1023 ± 1 kg/m3; in series [2] (323.15 K), 1018.4 ± 1 kg/m3.

Consider `N#Cc1ccccc1` [benzonitrile], for which the refractive index in series [1] (298.15 K) worked out at 1.526 ± 0.0016; in series [1] (303.15 K), 1.5235 ± 0.0016; in series [1] (308.15 K) it was 1.5209 ± 0.0016; in series [1] (313.15 K) it was 1.5184 ± 0.0016; in series [1] (318.15 K) it was 1.5158 ± 0.0016; in series [1] (323.15 K) it was 1.5133 ± 0.0016. The speed of sound in series [2] (298.15 K) stood at 1415.6 ± 1.5 m/s; in series [2] (303.15 K), 1398.1 ± 1.5 m/s; in series [2] (308.15 K), 1380.8 ± 1.5 m/s; in series [2] (313.15 K) it was 1363.6 ± 1.5 m/s; in series [2] (318.15 K), 1346.5 ± 1.5 m/s; in series [2] (323.15 K) it was 1329.5 ± 1.5 m/s. Moreover, the mass density in series [2] (298.15 K) amounted to 1000.6 ± 1 kg/m3; in series [2] (303.15 K), 995.9 ± 1 kg/m3; in series [2] (308.15 K), 991.4 ± 1 kg/m3; in series [2] (313.15 K), 986.9 ± 1 kg/m3; in series [2] (318.15 K), 982.5 ± 1 kg/m3; in series [2] (323.15 K) it was 977.9 ± 1 kg/m3.
